# Laboratory results from patent US20240277705A1, “DOSAGE REGIMENS FOR ECUBECTEDIN” (PHARMA MAR S.A., priority 2021, published 2024).
# Experiments:
# MEXF 462NL (melanoma) = assay: Propidium iodide monolayer cell proliferation assay, MEXF 462NL; type: cell-based, human; conditions: MEXL 462NL
# Procedure: (§1) Cell proliferation assay: A modified propidium iodide (PI) based monolayer assay was used to assess the anti-cancer activity of the compounds (Dengler WA, Schulte J, Berger DP, Mertelsmann R, Fiebig HH, Anti-Cancer Drugs 1995, 6: 522-532). Briefly, cells were harvested from exponential phase cultures, counted and plated in 96 well flat-bottom microtiter plates at a cell density of 4,000 to 30,000 cells/well dependent on the cell line's growth rate. After a 24 h recovery period, to allow the cells to resume exponential growth, 10 μl of culture medium (4 control wells/cell line/plate) or of culture medium with test compounds were added. PM14 was applied at ten concentrations in half-log increments in duplicates up to 3.16 pM and treatment continued for four days. […] After an incubation period of 1-2 hours at room temperature, fluorescence (FU) was measured using the Enspire Multimode Plate Reader (excitation A=530 nm, emission A=620 nm) to quantify the amount of attached viable cells.
# IC50 and IC70 values were calculated by 4 parameter non-linear curve fit using Oncotest Warehouse Software. […]
# IC50 values were determined as described in Example 2, but using the following human cancer cell lines: • MEXF 276L (melanoma) • MEXF 462NL (melanoma) • MEXF 1341L (melanoma)
# [1] = tested on: Caki-1 (kidney clear cell carcinoma); assay: MTT cell viability assay, Caki-1; type: cell-based; conditions: Homo sapiens, CAKI-1, 72 h; read-out: GI50, M (geometric mean, N = 3)
# From the text: Cell lines and cell culture: The following human cancer cell lines have been used in this example (the collection code and the tissue of origin are shown in brackets): • RXF 393 (NCI) (renal carcinoma) • Caki-1 (ATCC HTB-46) (kidney clear cell carcinoma)
# Cell lines were obtained from the American Type Culture Collection (ATCC) or the National Cancer Institute (NCI). Cells were maintained in the appropriate culture medium, namely: • RPMI for RXF 393 • McCoy's 5A for Caki-1
# All media were supplemented with 10% FBS, 2 mM L-Glutamine and 100 units/mL of penicillin-streptomycin.
# Cell viability assay: To assess the antiproliferative activity of the compounds a colorimetric assay based on 3-(4,5-Dimethylthiazol-2-yl)-2,5-diphenyltetrazolium bromide (MTT) reduction was used. […] Culture medium was then removed and 100 μL of neat DMSO added to each well to dissolve the formazan product into a coloured solution whose absorbance at 540 nm was finally measured in a PolarStar Omega microplate multilabel reader (BMG Labtech, Ortenberg, Germany). […]
# GI50 is finally used as reference value. […] To define a significant (ca. 70%) confidence interval for the geometric mean, its value must be multiplied and divided by the corresponding geometric standard deviation (GSD) which was also calculated. […]
# [2] = tested on: RXF 486L (hypernephroma, poorly differentiated); assay: Propidium iodide monolayer cell proliferation assay, RXF 486L; type: cell-based, human; conditions: four days of treatment
# Procedure: Working stock solution of PM14 was prepared in DMSO at a concentration of 1.042 mM and small aliquots were stored at −20° C. On each day of an experiment, a frozen aliquot of the working stock solution was thawed and stored at room temperature prior to and during treatment.
# Subsequent dilutions were done with complete RPMI 1640 cell culture medium. DMSO stock solutions were first diluted 1:22 (corresponding to 4.5% v/v DMSO). Starting with this solution, serial dilutions in half-log steps with cell culture medium were done using an intermediate dilution plate. Finally, 10 μl taken from the intermediate dilution plate were transferred to 140 μl/well of the cell culture plate. […]
# as §1, with “rate.” for “rate. After a 24 h recovery period, to allow the cells to resume exponential growth, 10 μl of culture medium (4 control wells/cell line/plate) or of culture medium with test compounds were added. PM14 was applied at ten concentrations in half-log increments in duplicates up to 3.16 pM and treatment continued for four days.”, “cells. […]” for “cells.”
structure (smiles),measurement,setting,value
"COc1c(C)cc2c(c1O)[C@@H]1[C@@H]3[C@@H]4SC[C@]5(N[C@H](CO)Cc6c5[nH]c5ccccc65)C(=O)OC[C@@H](c5c6c(c(C)c(OC(C)=O)c54)OCO6)N3[C@@H](O)[C@H](C2)N1C [PM14, ECUBECTEDIN]",IC50,"MEXF 462NL (melanoma); Homo sapiens, MEXF 462NL, read-out: IC50, μM (geometric mean)",0.0001 µM
same,"IC70, μM (geometric mean)",MEXF 462NL (melanoma),0.0001 µM
same,GI50,[1],611 pM
same,IC50,"[2]; Homo sapiens, 96 h, read-out: IC50, μM (geometric mean)",0.002 µM
same,"IC70, μM (geometric mean)",[2],0.002 µM
